EC50 data for 8 compounds are collected here from US20240279214A1, “ALPHA4 BETA7 INEGRIN ANTAGONISTS AND USES THEREOF” (XinThera, Inc., priority 2022, published 2024).

This assay concerns the target T1, a4b7 integrin interaction with MadCAM-1 (Homo sapiens, UniProt P13612+P26010).
T1 construct: capture of a4b7 integrin expressing cells, RPMI8866; endogenous in cells; host or cells: RPMI8866
T1 sequence (P13612 34-1032): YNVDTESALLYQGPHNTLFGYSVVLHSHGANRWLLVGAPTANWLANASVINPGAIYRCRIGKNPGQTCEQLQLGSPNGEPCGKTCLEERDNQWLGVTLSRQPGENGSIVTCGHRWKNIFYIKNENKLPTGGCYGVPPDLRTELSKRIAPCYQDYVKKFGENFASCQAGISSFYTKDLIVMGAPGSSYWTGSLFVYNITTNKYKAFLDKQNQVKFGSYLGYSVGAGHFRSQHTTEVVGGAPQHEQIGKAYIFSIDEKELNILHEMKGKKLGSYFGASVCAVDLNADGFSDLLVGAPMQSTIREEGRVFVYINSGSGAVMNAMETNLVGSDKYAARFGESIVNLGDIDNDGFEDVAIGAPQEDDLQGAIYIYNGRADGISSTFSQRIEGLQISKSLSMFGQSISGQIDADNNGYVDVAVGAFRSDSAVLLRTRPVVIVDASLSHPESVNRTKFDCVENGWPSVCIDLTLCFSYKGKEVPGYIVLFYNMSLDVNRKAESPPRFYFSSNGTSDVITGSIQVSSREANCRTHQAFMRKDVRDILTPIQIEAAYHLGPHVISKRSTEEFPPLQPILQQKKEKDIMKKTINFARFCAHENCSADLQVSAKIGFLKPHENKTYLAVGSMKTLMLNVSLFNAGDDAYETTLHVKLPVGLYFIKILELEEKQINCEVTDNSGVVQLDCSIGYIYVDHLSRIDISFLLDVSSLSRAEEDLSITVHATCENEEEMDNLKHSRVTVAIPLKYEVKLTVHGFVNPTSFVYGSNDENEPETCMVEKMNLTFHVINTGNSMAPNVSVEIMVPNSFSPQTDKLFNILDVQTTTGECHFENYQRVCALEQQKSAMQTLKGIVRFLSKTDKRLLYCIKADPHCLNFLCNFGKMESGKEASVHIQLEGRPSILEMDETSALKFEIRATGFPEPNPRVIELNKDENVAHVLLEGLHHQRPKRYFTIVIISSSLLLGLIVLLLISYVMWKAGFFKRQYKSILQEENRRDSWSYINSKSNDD
T1 sequence (P26010 20-798): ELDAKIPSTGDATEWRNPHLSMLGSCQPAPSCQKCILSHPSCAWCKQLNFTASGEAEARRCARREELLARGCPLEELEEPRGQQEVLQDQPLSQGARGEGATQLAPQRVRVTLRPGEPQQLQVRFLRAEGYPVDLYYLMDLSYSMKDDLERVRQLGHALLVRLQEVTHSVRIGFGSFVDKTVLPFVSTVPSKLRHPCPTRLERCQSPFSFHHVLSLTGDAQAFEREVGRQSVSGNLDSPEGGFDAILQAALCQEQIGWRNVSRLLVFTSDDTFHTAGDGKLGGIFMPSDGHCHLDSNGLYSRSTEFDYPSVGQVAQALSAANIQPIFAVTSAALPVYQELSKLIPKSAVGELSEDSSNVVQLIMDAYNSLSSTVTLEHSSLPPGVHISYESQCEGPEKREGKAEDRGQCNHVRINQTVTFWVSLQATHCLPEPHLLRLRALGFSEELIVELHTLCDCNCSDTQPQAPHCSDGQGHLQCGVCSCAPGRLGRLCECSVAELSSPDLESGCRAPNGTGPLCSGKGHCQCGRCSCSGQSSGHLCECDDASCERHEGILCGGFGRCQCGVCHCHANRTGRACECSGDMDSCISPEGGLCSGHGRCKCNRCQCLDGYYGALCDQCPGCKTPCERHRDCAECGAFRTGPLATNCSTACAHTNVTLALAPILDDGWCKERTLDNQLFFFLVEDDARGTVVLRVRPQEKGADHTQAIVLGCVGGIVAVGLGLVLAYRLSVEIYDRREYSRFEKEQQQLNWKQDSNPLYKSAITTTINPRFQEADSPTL
As to the kind of experiment: a4b7 Cell Capture Assay (RPMI8866 cells on MAdCAM-1 Fc coated plates). The assay is classed as cell-based. The settings on record: 50% human serum, 1 mM MgCl2, 1 hour incubation, CellTiter-Glo luminescence, read-out: a4B7 cell capture assay RMPI8866-MadCAM EC50. On the procedure: The potency of inhibitors in preventing a4b7 integrin interaction with MadCAM-1 was measured by monitoring the capture of a4b7 integrin expressing cells, RPMI8866, on recombinant human MAdCAM-1 Fc chimera protein-coated plates. The protein was a fusion between human MAdCAM-1 (Met1-Gln333, Accession #AAY82472) and human IgG1 (Pro100-Lys330)] (R&D Systems, Catalog #6056-MC). 96-well plates (Thermofisher, Catalog #136102) were coated with the recombinant protein by dispensing 100 μL (1.0 μg/mL) per well. After a quick spin to settle down the coating solution using a plate centrifuge, plates were incubated overnight at 4° C. in a moisture chamber. On Day 2, the plates were washed with PBS using a Bluecatbio Blue®Washer (GentleSpin wash, 3 cycles, pressure=1, volume 150 uL). Blocking solution (1.0% BSA in PBS, Sigma, Catalog #A7979) was then added at 200 uL/well, and the plates were quickly spun to settle down blocking buffer and incubated in cell culture incubator at 37° C. and 5% CO2 for 1 hour. The plates were then washed with 0.1% BSA in PBS using a Bluecatbio Blue®Washer (GentleSpin wash, 3 cycles, pressure=1, volume 150 uL). RPMI8866 cells suspended in assay medium (1 mM MgCl2 25 mM HEPES and 50% human serum, Sigma, Catalog #H4522) at a density of 1.0×10^6 cells/mL were added at 100 uL/well. Each compound evaluated was prepared as a DMSO stock solution. Test compounds were evaluated with a 9-point serial dilution curve (1000, 333.3, 111.1, 55.6, 27.8, 13.9, 6.9, 2.3, and 0.77 nM)) and were added to the plates using a Tecan D.30e Digita dispenser, the dispensed stock is 100 nL and the final DMSO concentration is 0.1%. Potent compounds were re-evaluated at a new 9-point serial dilution curve (100, 33.3, 11.1, 5.6, 2.8, 1.4, 0.69, 0.23, and 0.08 nM). Each titration curves were performed in triplicate on the same plate, and most of compounds were retested in different dates multiple times. The plates were shaken at 300 rpm on orbital plate shaker for 3 minutes to mix the cells and compounds, quickly spun to settle the cells and solution, and incubated in cell culture incubator at 37° C. and 5% CO2. After 1 hour incubation, the unbound cells were washed away with RPMI1640 medium supplemented with 1 mM MgCl2 and 1% BSA) (wash buffer) using a Bluecatbio Blue®Washer (MagbeadsSpin wash, 1 cycle, pressure 1, volume=150 uL). After wash buffer removal, A mixture of wash buffer/CellTiter-Glo® Reagent (Pormega, catalog #G7573) at 1:1 (V/V) was added at volume of 100 uL to each well. The plates were placed in a chamber at 25° C. and incubated for 30 minutes. Luminescence was recorded using a Envision plate reader 2105 according to CellTiter-Glo protocol.
The mean luminescence signals from negative control wells without MadCAM-1 coating and compound treatment (cells only) was defined as 100% binding inhibition, and the mean luminescence signals from positive control wells with MadCAM-1 coating but without compound treatment (MadCAM-1 and cells only) was defined as 0% binding inhibition. The luminescence signals from other compound treated wells were normalized in percentage scale accordingly. The normalized mean % inhibition data were plotted against logarithmic compound concentration in nanomolar and were fitted with 4-parameter logistic model to obtain IC50 for each compound.
For the compound `Cc1cc2cc(c1F)[C@H](CC(=O)O)NC(=O)[C@H](n1cc(CCN3CC(F)C3)c(C(F)(F)F)cc1=O)c1cccc(c1)Cc1cccc(C)c1-2` (relative stereo) [Example 2, [(14R*,17S)-19-fluoro-14-{5-[2-(3-fluoroazetidin-1-yl)ethyl]-2-oxo-4-(trifluoromethyl)pyridin-1-yl}-3,20-dimethyl-15-oxo-16-azatetracyclo[16.3.1.1^{9,13}.0^{2,7}]tricosa-1(22),2(7),3,5,9,11,13(23),18,20-nonaen-17-yl]acetic acid], the half-maximal effective concentration (EC50) came to 76 nM.
As for `Cc1cc(C)c2c(c1)Oc1cccc(c1)[C@H](n1cc(CCN3CC(F)C3)c(C(F)(F)F)cc1=O)C(=O)N[C@@H](CC(=O)O)c1cc-2cc(C(F)(F)F)c1F` (relative stereo) [Example 4, [(14R*,17S)-19-fluoro-14-{5-[2-(3-fluoroazetidin-1-yl)ethyl]-2-oxo-4-(trifluoromethyl)pyridin-1-yl}-3,5-dimethyl-15-oxo-20-(trifluoromethyl)-8-oxa-16-azatetracyclo[16.3.1.1^{9,13}.0^{2,7}]tricosa-1(21),2(7),3,5,9,11,13(23),18(22),19-nonaen-17-yl]acetic acid], the EC50 was 440 nM.
Next, `Cc1cc(C(F)(F)F)cc2c1-c1cc(c(F)c(C(F)(F)F)c1)[C@H](CC(=O)O)NC(=O)[C@@H](n1cc(CCN3CC(F)C3)c(C(F)(F)F)cc1=O)c1cccc(c1)O2` (relative stereo) [Example 5, [(14R*,17S)-19-fluoro-14-{5-[2-(3-fluoroazetidin-1-yl)ethyl]-2-oxo-4-(trifluoromethyl)pyridin-1-yl}-3-methyl-15-oxo-5,20-bis(trifluoromethyl)-8-oxa-16-azatetracyclo[16.3.1.1^{9,13}.0^{2,7}]tricosa-1(21),2(7),3,5,9,11,13(23),18(22),19-nonaen-17-yl]acetic acid]: 330 nM; `Cc1cccc2c1-c1cc(c(F)c(C(F)(F)F)c1)[C@H](CC(=O)O)NC(=O)[C@@H](n1cc(CCN3CC(F)C3)c(C(F)(F)F)cc1=O)c1cccc(c1)O2` (relative stereo) [Example 6, rel-2-((5S,8S)-14-fluoro-5-(5-(2-(3-fluoroazetidin-1-yl)ethyl)-2-oxo-4-(trifluoromethyl)pyridin-1(2H)-yl)-26-methyl-6-oxo-15-(trifluoromethyl)-3-oxa-7-aza-1,4(1,3),2(1,2)-tribenzenacyclooctaphane-8-yl)acetic acid]: 230 nM.
Next, `Cc1cccc2c1-c1cc(C3CC3)c(F)c(c1)[C@H](CC(=O)O)NC(=O)[C@@H](n1cc(CCN3CC(F)C3)c(C(F)(F)F)cc1=O)c1cccc(c1)O2` (relative stereo) [Example 9, [(14R*,17S)-20-cyclopropyl-19-fluoro-14-{5-[2-(3-fluoroazetidin-1-yl)ethyl]-2-oxo-4-(trifluoromethyl)pyridin-1-yl}-3-methyl-15-oxo-8-oxa-16-azatetracyclo[16.3.1.1^{9,13}.0^{2,7}]tricosa-1(21),2(7),3,5,9,11,13(23),18(22),19-nonaen-17-yl]acetic acid]: 72 nM.
Next, `Cc1ccc(C)c2c1Oc1cccc(c1)[C@H](n1cc(CCN3CC(F)C3)c(C(F)(F)F)cc1=O)C(=O)N[C@@H](CC(=O)O)c1cc-2cc(C(F)(F)F)c1F` (relative stereo) [Example 12, [(14R*,17S)-19-fluoro-14-{5-[2-(3-fluoroazetidin-1-yl)ethyl]-2-oxo-4-(trifluoromethyl)pyridin-1-yl}-3,6-dimethyl-15-oxo-20-(trifluoromethyl)-8-oxa-16-azatetracyclo[16.3.1.1^{9,13}.0^{2,7}]tricosa-1(22),2(7),3,5,9,11,13(23),18,20-nonaen-17-yl]acetic acid]: 970 nM.
On to `O=C(O)C[C@@H]1NC(=O)[C@@H](n2cc(CCN3CC(F)C3)c(C(F)(F)F)cc2=O)c2cccc(c2)Oc2cccc(C(F)(F)F)c2-c2cc1c(F)c(C(F)(F)F)c2` (relative stereo) [Example 13, [(14R*,17S)-19-fluoro-14-{5-[2-(3-fluoroazetidin-1-yl)ethyl]-2-oxo-4-(trifluoromethyl)pyridin-1-yl}-15-oxo-3,20-bis(trifluoromethyl)-8-oxa-16-azatetracyclo[16.3.1.1^{9,13}.0^{2,7}]tricosa-1(22),2(7),3,5,9,11,13(23),18,20-nonaen-17-yl]acetic acid], for which the EC50 is above 1000 nM.
Next, `Cc1cccc2c1-c1cc(c(F)c(C(F)(F)F)c1)[C@H](CC(=O)O)NC(=O)[C@@H](n1cc(CCN3CC(F)C3)c(C(F)(F)F)cc1=O)c1cc(cc(C(F)(F)F)c1)O2` (relative stereo) [Example 14, [(14R*,17S)-19-fluoro-14-{5-[2-(3-fluoroazetidin-1-yl)ethyl]-2-oxo-4-(trifluoromethyl)pyridin-1-yl}-3-methyl-15-oxo-11,20-bis(trifluoromethyl)-8-oxa-16-azatetracyclo[16.3.1.1^{9,13}.0^{2,7}]tricosa-1(22),2(7),3,5,9,11,13(23),18,20-nonaen-17-yl]acetic acid]: 38 nM.
